Like-named read-outs stand apart in the source and are kept apart here.
Assays:
TphC.0 = test: Isothermal titration calorimetry of the purified protein with its cognate ligand at 25 °C in SEC running buffer (25 mM sodium phosphate, 500 mM NaCl, pH 7.4), fitted with a one-site binding model.; details: SD, n = 3
Protocol: (§1) Ligands were dissolved in the specific buffer that was used in the size-exclusion chromatography (SEC) run of each protein purification (stored at −20 °C and thawed on the day of use). All protein and ligand samples were degassed and the temperature equilibrated to 25 °C for at least 10 min using a degassing station (TA Instruments). 400 μL of protein samples was loaded into the sample cell of a low volume AffinityITC machine with gold cell (TA Instruments) and ligand solutions were added into the injection syringe (protein and ligand concentrations can be found in Table S5). ITC measurements were performed at 25 °C with 20 injections of 2.5 μL (one initial injection of 0.5 μL was excluded from analysis), an adaptive injection interval, and stirring rate of 125 rpm. Subtractions of constant heat of dilution values for each ligand, peak integration, and fitting with a one-site binding model were done with NanoAnalyze (TA Instruments). The reported errors reflect the standard deviation of three technical replicas.

TphC.1 = test: as above; details: SD, n = 3
Protocol: as §1

TphC.2 = test: as above; details: SD, n = 3
Protocol: as §1

TphC.4 = test: as above; details: SD, n = 3
Protocol: as §1

TphC.3 = test: as above; details: SD, n = 3
Protocol: as §1

LAO.4 = test: as above; details: SD, n = 3
Protocol: as §1

LAO.0 = molecular target: T1, LAO.0 (Salmonella enterica, UniProt P02911); test: as above; details: SD, n = 3
T1 construct: gene argT
Protocol: as §1

LAO.1 = test: as above; details: SD, n = 3
Protocol: as §1

LAO.3 = test: as above; details: SD, n = 3
Protocol: as §1

LAO.2 = test: as above; details: SD, n = 3
Protocol: as §1

MBP.2 = test: as above; details: n = 3
Protocol: as §1

MBP.1 = test: as above; details: SD, n = 3
Protocol: as §1

MBP.4 = test: as above; details: SD, n = 3
Protocol: as §1

MBP.3 = test: as above; details: SD, n = 3
Protocol: as §1

PotF.3 = PotF.3 (Escherichia coli, UniProt P31133, A339P/E108N/E331D/F129Y/F266Y/K202N/N154D/S178A/S252A/S265A/T94S/V186I); test: as above; details: SD, n = 3
Chain of PotF.3 (P31133 27-370 T94S/E108N/F129Y/N154D/S178A/V186I/K202N/S252A/S265A/F266Y/E331D/A339P): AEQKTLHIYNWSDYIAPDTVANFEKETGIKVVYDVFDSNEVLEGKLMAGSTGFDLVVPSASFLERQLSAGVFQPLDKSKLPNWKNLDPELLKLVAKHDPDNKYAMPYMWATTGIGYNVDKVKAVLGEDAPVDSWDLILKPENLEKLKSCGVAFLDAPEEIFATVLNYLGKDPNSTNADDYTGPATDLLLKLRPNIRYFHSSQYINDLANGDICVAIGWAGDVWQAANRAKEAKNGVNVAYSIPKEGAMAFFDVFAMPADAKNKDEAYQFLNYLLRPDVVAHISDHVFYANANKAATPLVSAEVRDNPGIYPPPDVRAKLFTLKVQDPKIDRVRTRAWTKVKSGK
Protocol: as §1

PotF.1 = PotF.1 (Escherichia coli, UniProt P31133, A203P/A327P/A339P/E108N/E331D/F129Y/F266Y/F313Y/K122Q/K202N/M131I/N154D/S178A/S252A/S265A/S267T/S326N/T322L/V186I/V264I/V305M/V46I); test: as above; details: SD, n = 3
Chain of PotF.1 (P31133 other isoform, or with tags, fused parts or gaps with the stated changes): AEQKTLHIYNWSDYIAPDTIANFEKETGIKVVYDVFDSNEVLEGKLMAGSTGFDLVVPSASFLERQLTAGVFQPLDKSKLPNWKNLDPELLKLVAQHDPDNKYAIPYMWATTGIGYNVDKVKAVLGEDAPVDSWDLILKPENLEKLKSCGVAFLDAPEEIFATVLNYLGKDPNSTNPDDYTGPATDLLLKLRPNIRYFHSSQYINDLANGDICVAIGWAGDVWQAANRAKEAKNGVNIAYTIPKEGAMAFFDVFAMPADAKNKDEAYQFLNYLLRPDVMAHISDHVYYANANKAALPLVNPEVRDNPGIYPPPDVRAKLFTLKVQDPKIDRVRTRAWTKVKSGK
Protocol: as §1

PotF.0 = PotF.0 (Escherichia coli, UniProt P31133); test: as above; details: SD, n = 3
Protocol: as §1

PotF.4 = details: SD, n = 3
Protocol: as §1

PotF.2 = details: SD, n = 3
Protocol: as §1

[1] = CD thermal melt (Tmelt) of apo protein; assay type: physicochemical; details: CD at 222 nm, 20 to 95 °C, 1 °C/min, apo protein 0.2 mg/mL, pH 7.4, error from fit uncertainty
Protocol: To remove salts, protein samples were dialyzed overnight against 2 L of CD buffer (25 mM NaH2PO4/Na2HPO4, pH 7.4) using a 10 kDa molecular weight cutoff. Aggregated protein was removed by centrifugation at 15 000g for 5 min using a tabletop centrifuge (Eppendorf 5427R). Next, the protein concentration was adjusted to 0.3 mg/mL and verified photometrically. 200 μL of protein samples were mixed with either 100 μL of CD buffer or 100 μL of ligand solution (300 μM stocks of ligand solubilized in CD buffer) to reach a final concentration of 100 μM for the ligands and 0.2 mg/mL for the protein. CD spectra and thermal melt experiments were obtained on a JASCO J-1500 instrument using a glass cuvette with a 1 mm path length. For CD spectra, the following settings were used: wavelengths 240–190 nm, bandwidth 1 nm, response time 2 s, data pitch 0.1 nm, scanning speed 100 nm/min, and ten accumulations (for buffer controls only one accumulation was used). For Tmelt measurements, the following settings were used: wavelength of 222 nm, temperature range from 20 to 95 °C controlled by a Pelletier AWC100 (Julabo) using a slope of 1 °C/min, a bandwidth of 1 nm, and a response time of 2 s. Raw CD data were normalized by subtraction of the respective buffer data and subsequent conversion of the measured signal in millidegree to mean residue molar ellipticity. To obtain the apparent melting temperature T m, thermal melt data were fit using a sigmoidal equation according to Niklasson et al. The error plotted stems from the fit function uncertainty.

[2] = parameters: method as in previously published binding constants; details: wild type LAO; ref previously published binding constants; read-out: binding constant; cited from earlier work
[3] = Isothermal titration calorimetry, LAO variants with L-lysine; assay type: binding; details: ITC, 25 °C
Description: buffer-lysine 1 - 3 - 300
Supporting Table 5. Protein and ligand concentrations for ITC measurements

[4] = parameters: method as in previously published binding constants; details: wild type PotF; ref previously published binding constants; read-out: binding constant; cited from earlier work
[5] = Isothermal titration calorimetry, PotF variants with putrescine; assay type: binding; details: ITC, 25 °C
Description: Protein Design ID Experimental Protein Ligand target repeat concentration concentration (µM) […]

O=C(O)c1ccc(C(=O)O)cc1 [terephthalic acid]
Kd (TphC.0): 1180 ± 250 nM | Kd (TphC.1): 5750 ± 709 nM | Kd (TphC.2): 627 ± 69 nM | Kd (TphC.4): 282 ± 39 nM | Kd (TphC.3): 716 ± 91 nM

NCCCC[C@H](N)C(=O)O [L-lysine]
Kd (LAO.4): 150 ± 21 nM | Kd (LAO.0): 93 ± 35 nM | Kd (LAO.1): 2500 ± 211 nM | Kd (LAO.3): 824 ± 18 nM | Kd (LAO.2): 612 ± 56 nM

maltose
Kd (MBP.2): < 10000 nM | Kd (MBP.1): 1310 ± 293 nM | Kd (MBP.4): 2960 ± 675 nM | Kd (MBP.3): 450 ± 44 nM

NCCCCN [putrescine]
Kd (PotF.3): 101 ± 17 nM | Kd (PotF.1): 479 ± 12 nM | Kd (PotF.0): 42 ± 3 nM | Kd (PotF.4): 103 ± 10 nM | Kd (PotF.2): 42 ± 12 nM

B1: LAO.0: wild type L-lysine/L-arginine/L-ornithine binding protein LAO, Salmonella typhimurium, used as control (protein, UniProt P02911 23-260, looked up)
Lysine/arginine/ornithine-bind …: ALPQTVRIGTDTTYAPFSSKDAKGEFIGFDIDLGNEMCKRMQVKCTWVASDFDALIPSLKAKKIDAIISSLSITDKRQQEIAFSDKLYAADSRLIAAKGSPIQPTLESLKGKHVGVLQGSTQEAYANDNWRTKGVDVVAYANQDLIYSDLTAGRLDAALQDEVAASEGFLKQPAGKEYAFAGPSVKDKKYFGDGTGVGLRKDDTELKAAFDKALTELRQDGTYDKMAKKYFDFNVYGD
apparent T m [1]: 47 ± 0.1 °C | apparent T m ([1]; listed as LAO): 47 °C | Kd [2]: 232 ± 106 nM | -TΔS [3]: 3.56 ± 0.382 kcal/mol | ΔG [3]: -9.61 ± 0.22 kcal/mol | ΔH [3]: -13.2 ± 0.22 kcal/mol

B2: PotF.0: wild type putrescine-binding protein PotF, Escherichia coli (strain K12), used as control (protein, UniProt P31133 27-370, looked up)
Putrescine-binding …: AEQKTLHIYNWSDYIAPDTVANFEKETGIKVVYDVFDSNEVLEGKLMAGSTGFDLVVPSASFLERQLTAGVFQPLDKSKLPEWKNLDPELLKLVAKHDPDNKFAMPYMWATTGIGYNVDKVKAVLGENAPVDSWDLILKPENLEKLKSCGVSFLDAPEEVFATVLNYLGKDPNSTKADDYTGPATDLLLKLRPNIRYFHSSQYINDLANGDICVAIGWAGDVWQASNRAKEAKNGVNVSFSIPKEGAMAFFDVFAMPADAKNKDEAYQFLNYLLRPDVVAHISDHVFYANANKAATPLVSAEVRENPGIYPPADVRAKLFTLKVQDPKIDRVRTRAWTKVKSGK
apparent T m [1]: 63 ± 0.4 °C | apparent T m ([1]; listed as PotF): 63 °C | Kd [4]: 68 ± 40 nM | -TΔS [5]: 11.2 ± 0.287 kcal/mol | ΔG [5]: -10.1 ± 0.048 kcal/mol | ΔH [5]: -21.2 ± 0.263 kcal/mol
